Patent US9113629B2, “4-amino-6-(4-substituted-phenyl)-picolinates and 6-amino-2-(4-substituted-phenyl)-pyrimidine-4-carboxylates and their use as herbicides” (DOW AGROSCIENCES LLC, priority 2013, dated 2015)
Where two headings read alike, the source gives them in different places.

Key:
[1] = system: Key Broadleaf Weed and Crop Species; assay: Post-emergent Test II herbicidal activity (Table 5); assay type: in vivo; settings: post-emergence, 336 h, 14 days after application; for pest or weed control at 70 g/ha: application rate 70 g ai/ha; for pest or weed control at 140 g/ha: application rate 140 g ai/ha
Summary of the method: (§1)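 Greenhouse post-emergent assay: seedlings (first/second true leaf) in Metro-Mix 360 were sprayed at 187 L/ha at a top rate plus twofold dilutions down to 1/16×; solvent-blank controls were included. Percent visual injury was read at 14 d.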

[2] = system: Key Grass and Sedge Weeds as well as Grass Crops; assay: Post-emergent Test II herbicidal activity (Table 6); assay type: in vivo; settings: post-emergence, 336 h; for pest or weed control at 70 g/ha: 70 g ai/ha; for pest or weed control at 140 g/ha: 140 g ai/ha
Summary of the method: as §1

[3] = ABUTH: velvetleaf (Abutilon theophrasti), read-out: Visual Growth Reduction (%) 14 Days After Application, ABUTH
[4] = AMARE: redroot pigweed (Amaranthus retroflexus), read-out: Visual Growth Reduction (%) 14 Days After Application, AMARE
[5] = BRSNN: oilseed-rape, canola (Brassica napus), read-out: Visual Growth Reduction (%) 14 Days After Application, BRSNN
[6] = CHEAL: lambsquarters (Chenopodium album), read-out: Visual Growth Reduction (%) 14 Days After Application, CHEAL
[7] = EPHHL: wild poinsettia (Euphorbia heterophylla), read-out: Visual Growth Reduction (%) 14 Days After Application, EPHHL
[8] = HELAN: sunflower (Helianthus annuus), read-out: Visual Growth Reduction (%) 14 Days After Application, HELAN
[9] = VIOTR: wild pansy (Viola tricolor), read-out: Visual Growth Reduction (%) 14 Days After Application, VIOTR
[10] = CYPES: yellow nutsedge (Cyperus esculentus), read-out: Visual Growth Reduction (%) 14 Days After Application, CYPES
[11] = DIGSA: crabgrass (Digitaria sanguinalis), read-out: Visual Growth Reduction (%) 14 Days After Application, DIGSA
[12] = ECHCG: barnyardgrass (Echinochloa crus-galli), read-out: Visual Growth Reduction (%) 14 Days After Application, ECHCG
[13] = ORYSA: rice (Oryza sativa), crop, read-out: Visual Growth Reduction (%) 14 Days After Application, ORYSA
[14] = SETFA: giant foxtail (Setaria faberi), read-out: Visual Growth Reduction (%) 14 Days After Application, SETFA
[15] = SORVU: grain sorghum (Sorghum vulgare), read-out: Visual Growth Reduction (%) 14 Days After Application, SORVU
[16] = TRZSS (wheat, Triticum aestivum), crop, read-out: Visual Growth Reduction (%) 14 Days After Application, TRZSS
[17] = ZEAMX: maize, corn (Zea mays), crop, read-out: Visual Growth Reduction (%) 14 Days After Application, ZEAMX

melting point	SMILES	pest or weed control at 70 g/ha [1, 3] [%]	pest or weed control at 140 g/ha [1, 3] [%]	pest or weed control at 70 g/ha [1, 4] [%]	pest or weed control at 140 g/ha [1, 4] [%]	pest or weed control at 70 g/ha [1, 5] [%]	pest or weed control at 140 g/ha [1, 5] [%]	pest or weed control at 70 g/ha [1, 6] [%]	pest or weed control at 140 g/ha [1, 6] [%]	pest or weed control at 70 g/ha [1, 7] [%]	pest or weed control at 140 g/ha [1, 7] [%]	pest or weed control at 70 g/ha [1, 8] [%]	pest or weed control at 140 g/ha [1, 8] [%]	pest or weed control at 70 g/ha [1, 9] [%]	pest or weed control at 140 g/ha [1, 9] [%]	pest or weed control at 70 g/ha [2, 10] [%]	pest or weed control at 140 g/ha [2, 10] [%]	pest or weed control at 70 g/ha [2, 11] [%]	pest or weed control at 140 g/ha [2, 11] [%]	pest or weed control at 70 g/ha [2, 12] [%]	further results
136 to 138 °C	COC(=O)c1nc(-c2ccc(I)cc2F)c(F)c(N)c1Cl [Compound 9]	0 to 29	0 to 29	0 to 29	0 to 29	0 to 29	0 to 29	0 to 29	0 to 29	0 to 29	0 to 29	0 to 29	0 to 29	0 to 29	0 to 29	0 to 29	0 to 29	0 to 29	0 to 29	0 to 29	pest or weed control at 140 g/ha [2, 12]: 0 to 29%; pest or weed control at 70 g/ha [2, 13]: 0 to 29%; pest or weed control at 140 g/ha [2, 13]: 0 to 29%; pest or weed control at 70 g/ha [2, 14]: 0 to 29%; pest or weed control at 140 g/ha [2, 14]: 0 to 29%; pest or weed control at 70 g/ha [2, 15]: 0 to 29%; pest or weed control at 140 g/ha [2, 15]: 0 to 29%; pest or weed control at 70 g/ha [2, 16]: 0 to 29%; pest or weed control at 140 g/ha [2, 16]: 0 to 29%; pest or weed control at 70 g/ha [2, 17]: 0 to 29%; pest or weed control at 140 g/ha [2, 17]: 0 to 29%
165 to 175 °C (dec.)	C#Cc1ccc(-c2nc(C(=O)O)c(Cl)c(N)c2F)c(F)c1 [Compound 108]	45 to 59	75 to 84	75 to 84	95 to 100	85 to 94	85 to 94	60 to 74	75 to 84	85 to 94	95 to 100	85 to 94	95 to 100	0 to 29	45 to 59	45 to 59	30 to 44	60 to 74	60 to 74	45 to 59	pest or weed control at 140 g/ha [2, 12]: 75 to 84%; pest or weed control at 70 g/ha [2, 13]: 0 to 29%; pest or weed control at 140 g/ha [2, 13]: 0 to 29%; pest or weed control at 70 g/ha [2, 14]: 45 to 59%; pest or weed control at 140 g/ha [2, 14]: 30 to 44%; pest or weed control at 70 g/ha [2, 15]: 0 to 29%; pest or weed control at 140 g/ha [2, 15]: 30 to 44%; pest or weed control at 70 g/ha [2, 16]: 30 to 44%; pest or weed control at 140 g/ha [2, 16]: 30 to 44%; pest or weed control at 70 g/ha [2, 17]: 0 to 29%; pest or weed control at 140 g/ha [2, 17]: 45 to 59%
163 to 165 °C	COC(=O)c1nc(-c2ccc(Br)cc2F)nc(N)c1OC [Compound 35]	95 to 100	95 to 100	75 to 84	95 to 100	95 to 100	95 to 100	95 to 100	95 to 100	95 to 100	95 to 100	95 to 100	95 to 100	85 to 94	95 to 100	95 to 100	95 to 100	45 to 59	85 to 94	30 to 44	pest or weed control at 140 g/ha [2, 12]: 85 to 94%; pest or weed control at 70 g/ha [2, 13]: 0 to 29%; pest or weed control at 140 g/ha [2, 13]: 0 to 29%; pest or weed control at 70 g/ha [2, 14]: 0 to 29%; pest or weed control at 140 g/ha [2, 14]: 45 to 59%; pest or weed control at 70 g/ha [2, 15]: 45 to 59%; pest or weed control at 140 g/ha [2, 15]: 60 to 74%; pest or weed control at 70 g/ha [2, 16]: 30 to 44%; pest or weed control at 140 g/ha [2, 16]: 45 to 59%; pest or weed control at 70 g/ha [2, 17]: 95 to 100%; pest or weed control at 140 g/ha [2, 17]: 95 to 100%
